Patent US10806741B2, “Treatments for free-living amoebic infections” (Profounda, Inc., priority 2018, dated 2020)

Assays:
[1] = in vivo; cited from earlier work
Naegleria fowleri [2] = settings: Naegleria fowleri in the laboratory; cited from earlier work
Acanthamoeba [3] = settings: topical administration, 160 μM, 28 days treatment; hamsters exposed to Acanthamoeba for 5 days; cited from earlier work
Acanthamoeba [4] = assay: patients with Acanthamoeba keratitis treated with systemically administered (oral) miltefosine; format: in vivo, human
Text: Such infections have typically been hard to treat as the standard topical treatments generally don't permeate through the various tissue layers to the cysts of the amoeba. […] Previous treatment protocols for Acanthamoeba keratitis have only included topically applied agents such as biocides, and it is not clear from reported results whether cyst reduction was present at the end of these treatment protocols. Moreover, prior to 1996, every patient diagnosed with Acanthamoeba keratitis eventually lost the infected eye.
Since AK is commonly misdiagnosed, the stage of the disease when it is successfully identified varies greatly. […] A major advantage of the presently disclosed methods is that such patients could receive steroids after surgery while also receiving either or both of the systemic and topical formulations of miltefosine, and optional additional second agents.
Medication was discontinued for one week, during which time the patient experienced renewed symptoms.

[5] = solubility of miltefosine; format: physicochemical
Text: The chemical name of miltefosine is 2-[[(hexadecyloxy)hydroxyphosphenyl]oxy]-N,N,N-trimethylethylammonium inner salt, also known as hexadecylphosphocholine, represented by the formula (I). The empirical formula is C21H46NO4P, yielding a molecular weight of 407.57 g/mol.
Thus, according to certain aspects of the presently disclosed invention, the miltefosine may be administered as an oral formulation that is a liquid, such as included in a liquid capsule that may be swallowed, or as a formulation that a patient may drink. The miltefosine may be applied directly to body tissues such as skin or cornea. Alternatively, the miltefosine may be formulated as a solution that may be administered intravenously, such as formulated in a sterile saline solution.

Naegleria fowleri [6] = settings: Mexico, Arkansas, and Florida patients; cited from earlier work

For “2-[[(hexadecyloxy)hydroxyphosphenyl]oxy]-N,N,N-trimethylethylammonium inner salt [miltefosine]”, the half-life [1] is listed as “long half-life”, the amoeba-killing activity (Naegleria fowleri [2]) is listed as “amoeba-killing activity” and the “complete cure of hamsters” value (Acanthamoeba [3]) is listed as 85%. For the same substance, the “efficacy against Acanthamoeba keratitis, active feeding amoeba and cysts in the eyes” value (Acanthamoeba [4]; oral formulation, over eighty patients, more than a third treated for at least two months) was “effective to treat Acanthamoeba keratitis and was able to kill both active feeding amoeba and cysts in the eyes”, the “outcome of case study (AK infection)” value (Acanthamoeba [4]; patient, oral 50 mg TID just over a month, then 50 mg BID for an additional two months, with short course of oral steroids) was “clear the AK infection” and the solubility ([5]; aqueous solutions) was “freely soluble”. The solubility ([5]; water, 0.1 N HCl or NaOH, methanol, and ethanol) was “freely soluble” and the “survival of PAM patients” value (Naegleria fowleri [6]) was “survived”.
